From the supplement of paper PMC10307832

Legend:
Assay in all cases: relative viability (nuclei count vs DMSO), 5 days (fraction); higher = more cells survive
GSK126 + Pictilisib = compound: CC[C@H](C)N1C=C(C2=C(C=C(C=C21)C3=CN=C(C=C3)N4CCNCC4)C(=O)NCC5=C(C=C(NC5=O)C)C)C [GSK126] + CS(=O)(=O)N1CCN(Cc2cc3nc(-c4cccc5[nH]ncc45)nc(N4CCOCC4)c3s2)CC1 [Pictilisib] (partner 1 µM)
In short: (§1)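 The day after seeding in 1536-well plates, lung cancer cell lines were treated by pin tool with a single drug, or with a fixed anchor-drug dose together with five library-drug doses (not always all listed) in √10 steps. After 5 days, a combined fix-and-stain solution (final 0.05% Triton X-100, 1% formaldehyde, 1 ug/ml Hoechst) was added. Nuclei counted on 4× images gave relative viability as treated counts over vehicle counts, reported as the median of duplicate plates.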

MLN4924 + Pemetrexed = compound: NS(=O)(=O)OC[C@@H]1C[C@@H](n2ccc3c(N[C@H]4CCc5ccccc54)ncnc32)C[C@@H]1O [MLN4924] + Nc1nc2[nH]cc(CCc3ccc(C(=O)N[C@@H](CCC(=O)O)C(=O)O)cc3)c2c(=O)[nH]1 [Pemetrexed] (partner 0.2 µM)
In short: as §1

MLN4924 + Palbociclib = compound: NS(=O)(=O)OC[C@@H]1C[C@@H](n2ccc3c(N[C@H]4CCc5ccccc54)ncnc32)C[C@@H]1O [MLN4924] + CC(=O)c1c(C)c2cnc(Nc3ccc(N4CCNCC4)cn3)nc2n(C2CCCC2)c1=O [Palbociclib] (partner 0.5 µM)
In short: as §1

GSK126 + Linsitinib = compound: CC[C@H](C)N1C=C(C2=C(C=C(C=C21)C3=CN=C(C=C3)N4CCNCC4)C(=O)NCC5=C(C=C(NC5=O)C)C)C [GSK126] + C[C@]1(O)C[C@@H](c2nc(-c3ccc4ccc(-c5ccccc5)nc4c3)c3c(N)nccn32)C1 [Linsitinib] (partner 1 µM)
In short: as §1

| Cell Line | relative viability (GSK126 + Pictilisib; first compound 0.08 µM) | relative viability (GSK126 + Pictilisib; first compound 0.253 µM) | relative viability (GSK126 + Pictilisib; first compound 0.8 µM) | relative viability (GSK126 + Pictilisib; first compound 2.53 µM) | relative viability (GSK126 + Pictilisib; first compound 8 µM) | relative viability (MLN4924 + Pemetrexed; first compound 0.04 µM) | relative viability (MLN4924 + Pemetrexed; first compound 0.1265 µM) | relative viability (MLN4924 + Pemetrexed; first compound 0.4 µM) | relative viability (MLN4924 + Pemetrexed; first compound 1.265 µM) | relative viability (MLN4924 + Pemetrexed; first compound 4 µM) | relative viability (MLN4924 + Palbociclib; first compound 0.04 µM) | relative viability (MLN4924 + Palbociclib; first compound 0.1265 µM) | relative viability (MLN4924 + Palbociclib; first compound 0.4 µM) | relative viability (MLN4924 + Palbociclib; first compound 1.265 µM) | relative viability (MLN4924 + Palbociclib; first compound 4 µM) | relative viability (GSK126 + Linsitinib; first compound 0.08 µM) | relative viability (GSK126 + Linsitinib; first compound 0.253 µM) | relative viability (GSK126 + Linsitinib; first compound 0.8 µM) | relative viability (GSK126 + Linsitinib; first compound 2.53 µM) | relative viability (GSK126 + Linsitinib; first compound 8 µM) |
| --- | --- | --- | --- | --- | --- | --- | --- | --- | --- | --- | --- | --- | --- | --- | --- | --- | --- | --- | --- | --- |
| NCI-H460 | 0.371 | 0.391 | 0.335 | 0.361 | 0.338 | 0.0658 | 0.0623 | 0.0708 | 0.059 | 0.0457 | 0.189 | 0.121 | 0.0985 | 0.0213 | 0.0283 | 0.76 | 0.784 | 0.787 | 0.798 | 0.969 |
| COR-L23 | 0.946 | 0.735 | 0.817 | 0.839 | 0.768 | 0.193 | 0.199 | 0.168 | 0.163 | 0.132 | 0.267 | 0.3 | 0.215 | 0.0984 | 0.105 | 1.06 | 1.12 | 0.918 | 0.912 | 0.99 |
| NCI-H2009 | 1.14 | 0.69 | 0.827 | 0.908 | 0.908 | 0.941 | 0.884 | 0.218 | 0.133 | 0.0755 | 0.0712 | 0.0898 | 0.0671 | 0.0534 | 0.0501 | 1.3 | 1.18 | 1.27 | 1.18 | 1.2 |
| PC-3 [JPC-3] | 0.808 | 0.795 | 0.814 | 0.781 | 0.762 | 1.1 | 1.26 | 0.288 | 0.311 | 0.377 | 0.556 | 0.53 | 0.373 | 0.346 | 0.46 | 1.01 | 0.977 | 0.941 | 0.921 | 0.958 |
| NCI-H2085 | 0.484 | 0.358 | 0.369 | 0.485 | 0.49 | 0.916 | 0.91 | 0.888 | 0.882 | 0.451 | 0.489 | 0.505 | 0.587 | 0.556 | 0.416 | 0.903 | 0.774 | 1.02 | 0.89 | 1.02 |
| EKVX | 0.417 | 0.474 | 0.408 | 0.518 | 0.353 | 0.45 | 0.411 | 0.316 | 0.23 | 0.174 | 0.389 | 0.362 | 0.334 | 0.188 | 0.142 | 1.04 | 1.12 | 0.918 | 1.01 | 0.885 |
| NCI-H1792 | 0.289 | 0.272 | 0.35 | 0.3 | 0.246 | 0.776 | 0.672 | 1.35 | 0.296 | 0.195 | 0.654 | 0.583 | 0.689 | 0.453 | 0.353 | 0.561 | 0.639 | 0.51 | 0.571 | 0.498 |
| NCI-H2405 | 0.427 | 0.385 | 0.437 | 0.452 | 0.397 | 0.806 | 0.863 | 0.44 | 0.187 | 0.193 | 0.516 | 0.456 | 0.41 | 0.22 | 0.252 | 1.02 | 0.829 | 0.876 | 1 | 0.927 |
| 201T | 0.686 | 0.8 | 0.738 | 0.691 | 0.728 | 0.291 | 0.312 | 0.315 | 0.287 | 0.257 | 0.395 | 0.353 | 0.354 | 0.219 | 0.26 | 1.04 | 1.11 | 1.06 | 1.07 | 1.18 |
| NCI-H1755 | 0.512 | 0.451 | 0.459 | 0.46 | 0.384 | 0.378 | 0.268 | 0.282 | 0.178 | 0.186 | 0.4 | 0.442 | 0.314 | 0.209 | 0.257 | 1.01 | 1.04 | 1.01 | 0.967 | 1.03 |
| NCI-H647 | 0.441 | 0.351 | 0.404 | 0.528 | 0.337 | 0.156 | 0.119 | 0.0763 | 0.0395 | 0.0465 | 0.22 | 0.264 | 0.0524 | 0.029 | 0.0424 | 1.47 | 1.28 | 1.17 | 1.07 | 1.08 |
| NCI-H1651 | 0.55 | 0.548 | 0.601 | 0.608 | 0.584 | 0.632 | 0.693 | 0.703 | 0.509 | 0.171 | 0.521 | 0.54 | 0.569 | 0.374 | 0.191 | 1.07 | 0.815 | 0.855 | 0.972 | 1.05 |
| NCI-H1437 | 0.44 | 0.504 | 0.406 | 0.455 | 0.405 | 0.314 | 0.275 | 0.28 | 0.208 | 0.177 | 0.292 | 0.321 | 0.228 | 0.187 | 0.134 | 1.07 | 1.07 | 0.954 | 0.983 | 0.938 |
| NCI-H1975 | 0.328 | 0.301 | 0.321 | 0.291 | 0.274 | 0.284 | 0.331 | 0.278 | 0.272 | 0.209 | 0.549 | 0.696 | 0.707 | 0.557 | 0.231 | 1.02 | 1.01 | 0.983 | 0.96 | 0.987 |
